Experiment [1] has as its system ulceration induced by exposure to stress (restraint and water immersion) in rats. The experiment in a line: Effect on the ulceration induced by exposure to stress (restraint and water immersion) in rats, Test 2. The format is in vivo, rat (male Wistar). Particulars: for inhibition in vivo at 10 mg/kg / Ulcer index: stress-induced ulcer. As for the experimental part: Effect on the ulceration induced by exposure to stress (restraint and water immersion) in rats The effect evaluated by this test is considered to be fairly well correlative to inhibitory effect on gastric acid secretion. Male Wistar rats weighing about 200 g were used in groups of 5 animals each. According to the method of Takagi et al. [cf. Japan. […] After 20 hours, the animals were taken out from the water bath and sacrificed under ether anesthesia, and the stomachs were removed. The stomach was inflated with 13 ml of physiological saline and placed in a 5% formalin solution for 5 minutes. After washing with physiological saline, the stomach was cut along the greater curvature and the length (mm) of each lesion in the glandular portion was measured using a dissecting microscope (×12). The sum of the length (mm) of each lesion in a stomach was indicated as an ulcer index. The inhibitory rate was determined by comparing the ulcer index in drug-treated groups with that in control group. Test compounds were administered orally 30 minutes before the immersion. In the control group, a vehicle (a 0.5% tragacanth solution) was administered orally.

The subject of experiment [2] is hypothermia induced by reserpine. The experiment in a line: Antireserpine activity (antagonistic effect on hypothermia induced by reserpine), Test 4. It counts as in vivo, mouse (male ddY). The following applies: mouse. The method, then: Antireserpine activity (antagonistic effect on hypothermia induced by reserpine)
This test was carried out according to the method of Askew [cf. Life Sci., 2, 725 (1963)].
Male ddY mice weighing 22 g to 27 g were used in groups of 5 animals each. Test compounds were administered orally to the animals, and immediately 5 mg/kg of reserpine was injected intraperitoneally. Rectal temperature of each mouse was measured 4 hours later with a thermistor (Shibaura Electric, BMG III-130). The inhibitory rate was determined by comparing the fall of rectal temperature in drug-treated groups with that in control group. In the control group, a vehicle (a 0.5% tragacanth solution) was administered orally.

The test system of experiment [3] is ulceration induced by ethanol in rats. The experiment in a line: Effect on the ulceration induced by ethanol in rats (gastric cytoprotection activity), Test 1. The format is in vivo, rat (male Wistar). Particulars: for Ulcer index / inhibition in vivo at 10 mg/kg: ethanol-induced ulcer. The method, then: Effect on the ulceration induced by ethanol in rats (gastric cytoprotection activity) This test was carried out according to the method of Robert [cf. […] Male Wistar rats weighing 190 g to 200 g were fasted for 24 hours and then given orally 1 ml of absolute ethanol. After 1 hour, the animals were sacrificed under ether anesthesia, and the stomachs were removed and cut along the greater curvature. The length (mm) of each lesion in the glandular portion was measured using a dissecting microscope (×12). The sum of the length (mm) of each lesion in a stomach was indicated as an ulcer index. The inhibitory rate was determined by comparing the ulcer index in drug-treated groups with that in control group. Test compounds were administered orally 30 minutes before the administration of ethanol. In the control group, a vehicle (a 0.5% tragacanth solution) was administered orally.

For experiment [4], the system named is ulceration induced by pylorus-ligation (Shay ulcer) in rats. Put plainly: Effect on the ulceration induced by pylorus-ligation (Shay ulcer) in rats, Test 3. Particulars: Shay ulcer, rat; for Ulcer index: index of 0 to 5. It counts as in vivo, rat (male Wistar). As for the experimental part: Effect on the ulceration induced by pylorus-ligation (Shay ulcer) in rats […] The portion between pylorus and duodenum of each rat was ligated under ether anesthesia according to the method of Shay et al. […] Each of the animals was then allowed to stand abstained from food and water in a cage. After 18 hours, the animals were sacrificed under ether anesthesia, and the stomachs were removed and cut along the greater curvature. […] 0: no lesion 1: hemorrhage or erosion […] The inhibitory rate was determined by comparing the ulcer index in drug-treated groups with that in the control group. […] Test compounds were administered orally 30 minutes before the ligation. In the control group, a vehicle (a 0.5% tragacanth solution) was administered orally.

Setting [5] is: po, 20 h, rat, 10 mg/kg p.o., read-out: Inhibitory rate.
Setting [6] is: po, 1 h, rat, 10 mg/kg p.o., read-out: Inhibitory rate.

This is an account of results in patent US4758566A, “2-(1-piperazinyl)-4-substituted phenylquinoline derivatives, processes for the preparation thereof, and pharmaceutical composition containing the same” (Dainippon Pharmaceutical Co., Ltd., priority 1984, dated 1988).

Structures can show the parent of a compound that is named as a salt.

With `O=C(O)/C=C\C(=O)O.O=C(O)/C=C\C(=O)O.OCCCN1CCN(c2cc(-c3ccc(F)cc3)c3ccccc3n2)CC1` [B, 2-[4-(3-hydroxypropyl)-1-piperazinyl]-4-(4-fluorophenyl)quinoline dimaleate], the inhibition in vivo at 10 mg/kg in experiment [1] (setting [5]) came out at 61.7%; in experiment [3] (setting [6]), 69.2%. Moreover, the Ulcer index in experiment [1] (rat, 10 mg/kg p.o.) came out at 7.4 ± 1.2 mm; in experiment [3] (rat, 10 mg/kg p.o.) it was 21.9 ± 12.1 mm. For the same compound, the Inhibitory rate in experiment [2] (100 mg/kg p.o.) is given as 59.4%.

For the compound `FC(F)(F)c1cccc(-c2cc(N3CCNCC3)nc3ccccc23)c1.O=C(O)/C=C\C(=O)O.O=C(O)/C=C\C(=O)O` [H, 2-(1-piperazinyl)-4-(3-trifluoromethylphenyl)quinoline dimaleate], the inhibition in vivo at 10 mg/kg in experiment [1] (setting [5]) amounted to 4.3%; in experiment [3] (setting [6]), 84.3%. Moreover, the Ulcer index was 24.7 ± 3.6 mm in experiment [1] (rat, 10 mg/kg p.o.) and 7.1 ± 1.9 mm in experiment [3] (rat, 10 mg/kg p.o.).

For `O=C(O)/C=C\C(=O)O.O=C(O)/C=C\C(=O)O.OCCN1CCN(c2cc(-c3ccc(C(F)(F)F)cc3)c3ccccc3n2)CC1` [F, 2-[4-(2-hydroxyethyl)-1-piperazinyl]-4-(4-trifluoromethylphenyl)quinoline dimaleate], the inhibition in vivo at 10 mg/kg was 41.6% in experiment [1] (setting [5]) and 87.2% in experiment [3] (setting [6]). Also, the Ulcer index in experiment [1] (rat, 10 mg/kg p.o.) turned out to be 19.8 ± 2.0 mm; in experiment [3] (rat, 10 mg/kg p.o.) it was 6.7 ± 1.8 mm.

As to `CN(C)CCCN1c2ccccc2CCc2ccccc21` [Imipramine hydrochloride, reference compound], the Inhibitory rate is 29.5% in experiment [2] (10 mg/kg p.o.), 69.3% in experiment [2] (30 mg/kg p.o.) and 94.5% in experiment [2] (100 mg/kg p.o.).

On to `O=C(O)/C=C\C(=O)O.O=C(O)/C=C\C(=O)O.OCCN1CCN(c2cc(-c3cccc(C(F)(F)F)c3)c3ccccc3n2)CC1` [J, 2-[4-(2-hydroxyethyl)-1-piperazinyl]-4-(3-trifluoromethylphenyl)quinoline dimaleate], for which the inhibition in vivo at 10 mg/kg in experiment [1] (setting [5]) was -2.7%; in experiment [3] (setting [6]), 74.8%. The Ulcer index is on record as 34.8 ± 3.9 mm in experiment [1] (rat, 10 mg/kg p.o.) and 9.0 ± 4.2 mm in experiment [3] (rat, 10 mg/kg p.o.).

As for `CCN1CCN(c2cc(-c3ccc(Cl)cc3)c3ccccc3n2)CC1.O=C(O)/C=C\C(=O)O.O=C(O)/C=C\C(=O)O` [D, 2-(4-ethyl-1-piperazinyl)-4-(4-chlorophenyl)quinoline dimaleate], the inhibition in vivo at 10 mg/kg turned out to be 54% in experiment [1] (setting [5]) and 89% in experiment [3] (setting [6]). The Ulcer index in experiment [1] (rat, 10 mg/kg p.o.) is on record as 13.4 ± 2.1 mm; in experiment [3] (rat, 10 mg/kg p.o.), 8.6 ± 4.5 mm. Besides, the Inhibitory rate in experiment [2] (100 mg/kg p.o.) came out at 45.2%.

Regarding `O=C(O)/C=C\C(=O)O.O=C(O)/C=C\C(=O)O.OCCN1CCN(c2cc(-c3ccc(Cl)cc3)c3ccccc3n2)CC1` [G, 2-[4-(2-hydroxyethyl)-1-piperazinyl]-4-(4-chlorophenyl)quinoline dimaleate], the inhibition in vivo at 10 mg/kg in experiment [1] (setting [5]) is 36.4%; in experiment [3] (setting [6]), 76.1%. In addition, the Ulcer index in experiment [1] (rat, 10 mg/kg p.o.) turned out to be 18.5 ± 6.9 mm; in experiment [3] (rat, 10 mg/kg p.o.), 10.8 ± 6.3 mm.

For the compound `Clc1ccc(-c2cc(N3CCNCC3)nc3ccccc23)cc1.O=C(O)/C=C\C(=O)O` [C, 2-(1-piperazinyl)-4-(4-chlorophenyl)quinoline maleate], the inhibition in vivo at 10 mg/kg in experiment [1] (setting [5]) was 65.6%; in experiment [3] (setting [6]) it was 87.4%. In addition, the Ulcer index in experiment [1] (rat, 10 mg/kg p.o.) worked out at 8.5 ± 2.9 mm; in experiment [3] (rat, 10 mg/kg p.o.), 4.5 ± 3.7 mm. This compound also yielded an Inhibitory rate in experiment [2] (100 mg/kg p.o.) of 64.3%.

Consider `CN/C(=N/CCSCc1nc[nH]c1C)NC#N` [Cimetidine, reference compound], for which the inhibition in vivo at 20 mg/kg in experiment [1] (Rattus norvegicus, po, 20 h, read-out: Inhibitory rate) stood at 39.1%. Moreover, the “preventive effect on the stress-induced ulceration (in words)” value in experiment [1] (rat, 20 mg/kg p.o.) was “did not exhibit any significant effect”. Further, the Ulcer index in experiment [1] (rat, 20 mg/kg p.o.) is 15.1 ± 2.9 mm; in experiment [4] (50 mg/kg p.o.), 3.3 ± 0.3; in experiment [4] (100 mg/kg p.o.), 3 ± 0.5; in experiment [4] (200 mg/kg p.o.), 1.9 ± 0.4; in experiment [4] (500 mg/kg p.o.), 0.8 ± 0.2; in experiment [3] (rat, 100 mg/kg p.o.) it was 23.9 ± 8.2 mm. Besides, the Inhibitory rate in experiment [4] (50 mg/kg p.o.) turned out to be 0%; in experiment [4] (100 mg/kg p.o.), 9.1%; in experiment [4] (200 mg/kg p.o.) it was 42.4%; in experiment [4] (500 mg/kg p.o.), 75.8%. For the same compound, the inhibition in vivo at 100 mg/kg in experiment [3] (Rattus norvegicus, po, 1 h, read-out: Inhibitory rate) came to 25.1%. Also, the “protective effect on the ethanol-induced ulceration (in words)” value in experiment [3] (rat, 100 mg/kg p.o.) is “did not exhibit any significant protective effect”.

Turning to `CCN1CCN(c2cc(-c3cccc(C(F)(F)F)c3)c3ccccc3n2)CC1.O=C(O)/C=C\C(=O)O.O=C(O)/C=C\C(=O)O` [I, 2-(4-ethyl-1-piperazinyl)-4-(3-trifluoromethylphenyl)quinoline dimaleate], the inhibition in vivo at 10 mg/kg in experiment [1] (setting [5]) was 20.1%; in experiment [3] (setting [6]), 63.5%. Besides, the Ulcer index in experiment [1] (rat, 10 mg/kg p.o.) amounted to 27.1 ± 2.2 mm; in experiment [3] (rat, 10 mg/kg p.o.), 16.5 ± 3.9 mm.

Consider `Cc1ccc(-c2cc(N3CCN(CCO)CC3)nc3ccccc23)cc1.O=C(O)/C=C\C(=O)O.O=C(O)/C=C\C(=O)O` [E, 2-[4-(2-hydroxyethyl)-1-piperazinyl]-4-(4-methylphenyl)quinoline dimaleate], for which the values for the inhibition in vivo at 10 mg/kg in experiment [1] (setting [5]) and in experiment [3] (setting [6]) were 69.7% and 64.4%, respectively. The Ulcer index in experiment [1] (rat, 10 mg/kg p.o.) was 11.8 ± 4.6 mm; in experiment [3] (rat, 10 mg/kg p.o.) it was 12.0 ± 2.3 mm. This compound gave an Inhibitory rate in experiment [2] (100 mg/kg p.o.) of 51.3%.
